This is an account of results in publication PMC7749390, “Neuroprotective activity of Ulmus pumila L. in Alzheimer's disease in rats; role of neurotrophic factors” (Heliyon, 2020).

Converted amounts (≈) assume the structure as drawn. Where two headings read alike, the source gives them in different places.

Assay [1] concerns the target T1, Electric-eel AChE (Electrophorus electricus, UniProt O42275).
T1 construct: purchased Sigma
Briefly: biochemical. As to conditions: for inhibition at 6.25 µM: read-out: % Inhibition 6.25μM; for inhibition at 12.5 µM: read-out: % Inhibition 12.5μM; for inhibition at 25 µM: read-out: % Inhibition 25μM; for inhibition at 50 µM: read-out: % Inhibition 50μM. How it is done:
The reaction mixture contained 150 μL of (100 mM) sodium phosphate buffer (pH 8.0), 10 μL of 5,5-Dithiobis-(2-nitrobenzoic acid) (DTNB, Sigma), 10 μL of test-extract solution and 20 μL of acetyl cholinesterase solution (Electric-eel AChE- Sigma) were mixed and incubated for 15 min (37 °C) followed by the addition of 10ml of acetylthiocholine (Sigma) to initiate the reaction. Hydrolysis of acetylthiocholine was monitored by the formation of yellow 5-thio-2- nitrobenzoate anion measured by UV- Vis Shimadzu spectrophotometer-USA at a wavelength of 412 nm (15 min).
Statistical analysis: reactions were carried out in triplicates and the data were expressed as mean ± SEM. The inhibitory concentration (IC50) of the total extract and each compound, was graphically evaluated by a non-linear regression method using Graph Pad Prism (Ver. 5.0) software.

Assay [2] is described as follows: DPPH radical scavenging assay. In general terms: DPPH is a stable violet radical that fades when it is reduced.
The nature of assay [3]: Superoxide anion scavenging assay.
[4] abbreviates: table, mean ± SEM, n = 3, read-out: IC50.

T1 sequence (O42275 24-633): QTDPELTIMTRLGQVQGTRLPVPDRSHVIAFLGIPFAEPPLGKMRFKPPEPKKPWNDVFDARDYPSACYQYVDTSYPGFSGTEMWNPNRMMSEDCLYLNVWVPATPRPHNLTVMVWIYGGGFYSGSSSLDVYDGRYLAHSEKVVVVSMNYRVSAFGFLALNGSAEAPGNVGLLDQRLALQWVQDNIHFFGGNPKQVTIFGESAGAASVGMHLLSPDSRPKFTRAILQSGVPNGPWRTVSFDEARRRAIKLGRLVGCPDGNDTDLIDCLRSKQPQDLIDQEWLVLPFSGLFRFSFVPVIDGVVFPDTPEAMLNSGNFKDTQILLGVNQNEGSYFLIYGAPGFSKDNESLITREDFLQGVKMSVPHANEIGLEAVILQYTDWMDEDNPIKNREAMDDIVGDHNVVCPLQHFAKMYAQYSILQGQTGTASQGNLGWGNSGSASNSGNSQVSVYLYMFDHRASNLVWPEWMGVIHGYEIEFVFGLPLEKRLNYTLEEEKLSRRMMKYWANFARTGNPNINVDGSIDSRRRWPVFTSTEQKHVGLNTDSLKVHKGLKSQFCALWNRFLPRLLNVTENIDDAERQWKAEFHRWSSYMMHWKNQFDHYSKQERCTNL

One may read the IC50 as the concentration that inhibits the measured activity by half. Broadly, the inhibition is the relative decrease from the control value, in per cent. `O=c1c(O[C@@H]2O[C@H](CO)[C@@H](O)[C@H](O)[C@H]2O)c(-c2ccc(O)c(O)c2)oc2cc(O)cc(O)c12` [Compound 5, quercetin-3-O-β-D-gulucopyranoside]: in assay [1], the IC50 stood at 31.72 ± 0.017 µM, the inhibition at 6.25 µM came out at 3.9 ± 1%, the inhibition at 12.5 µM was 14.4 ± 0.9% and the inhibition at 25 µM is 36.3 ± 1.6%. The inhibition at 50 µM in assay [1] came to 72.8 ± 2.6%.

With `Oc1cc(O)c2c(c1)OC(c1ccc(O)c(O)c1)C(O)C2` (single isomer, unassigned; (+)) [Compound 1, (+)-catechin], the inhibition at 6.25 µM in assay [1] (6.25μM, mean ± SEM, n = 3) worked out at 4.6 ± 1%. Further, the inhibition at 12.5 µM in assay [1] (12.5μM, mean ± SEM, n = 3) worked out at 16.2 ± 2.4%. The inhibition at 25 µM in assay [1] (25μM, mean ± SEM, n = 3) is 32.5 ± 2.5%. Moreover, the inhibition at 50 µM in assay [1] (50μM, mean ± SEM, n = 3) came to 70.3 ± 1.2%. The IC50 in assay [1] (setting [4]) amounted to 33.61 ± 0.0295 µM.

The compound `CN(CCCCCCN(C)C(=O)Oc1ccc[n+](C)c1)C(=O)Oc1ccc[n+](C)c1` [distigmine bromide, reference compound] had an IC50 in assay [1] of 26.83 ± 0.02 µM.

As to `CC1OC(OCC2OC(Oc3c(-c4ccc(O)cc4)oc4cc(O)cc(O)c4c3=O)C(O)C(O)C2O)C(O)C(O)C1O` (stereo not shown) [Compound 8, Kaempferol 3-o-robinobioside], in assay [1] (6.25μM, mean ± SEM, n = 3), the inhibition at 6.25 µM stood at 1.5 ± 0.8%. Moreover, the inhibition at 12.5 µM in assay [1] (12.5μM, mean ± SEM, n = 3) amounted to 4.4 ± 0.9%. The inhibition at 25 µM in assay [1] (25μM, mean ± SEM, n = 3) was found to be 19.9 ± 1.8%. The inhibition at 50 µM in assay [1] (50μM, mean ± SEM, n = 3) is 59.3 ± 2.9%. In assay [1] (setting [4]), the IC50 is 43.13 ± 0.13 µM.

Take `Oc1cc(O)c2c(c1)O[C@H](c1ccc(O)c(O)c1)[C@H](O)C2` [Compound 2, (-)-epicatechin]: the inhibition at 6.25 µM in assay [1] (6.25μM, mean ± SEM, n = 3) stood at 4.7 ± 0.7%. Also, the inhibition at 12.5 µM in assay [1] (12.5μM, mean ± SEM, n = 3) was 19.6 ± 2.6%. In addition, in assay [1] (25μM, mean ± SEM, n = 3), the inhibition at 25 µM came to 33.7 ± 1.2%. Besides, in assay [1] (50μM, mean ± SEM, n = 3), the inhibition at 50 µM was 73.6 ± 1.8%. Besides, in assay [1] (setting [4]), the IC50 stood at 31.62 ± 0.04 µM.

In the case of `O=c1c(O[C@@H]2O[C@H](CO)[C@@H](O)[C@H](O)[C@H]2O)c(-c2ccc(O)cc2)oc2cc(O)cc(O)c12` [Compound 3, kaempferol 3-o-β-D-glucoside], in assay [1], inhibition was half-maximal at 29.03 ± 0.0155 µM (IC50), the inhibition at 6.25 µM is 3.7 ± 0.6%, the inhibition at 12.5 µM was 14.6 ± 1.2% and the inhibition at 25 µM came out at 39.4 ± 0.8%. Moreover, in assay [1], the inhibition at 50 µM amounted to 79.3 ± 0.8%.

Consider `O=C1O[C@H]([C@@H](O)CO)C(O)=C1O` [ascorbic acid], for which the “IC50, free radical scavenging activity (DPPH assay)” value in assay [2] was 5.6 µg/mL (≈ 31.8 µM).

`O=c1c(O)c(-c2ccc(O)c(O)c2)oc2cc(O)cc(O)c12` [quercetin]: the “IC50, superoxide anion radical inhibitory activity” value in assay [3] was 45.3 ± 1.6 µg/mL (≈ 150 µM).
